# Results as given in patent US12077503B2, “Substituted cyclic amides and their use as herbicides” (FMC CORPORATION, priority 2015, dated 2024).
# Tests used:
# Test in all cases: Test C preemergence
# Format in all cases: in vivo
# Details in all cases: scale 0 to 100, 0 no effect, 100 complete control
# [1] = tested on: ragweed (common ragweed, Ambrosia elatior)
# Description: (§1) Seeds of plant species selected from blackgrass (Alopecurus myosuroides), ryegrass, Italian (Italian ryegrass, Lolium multiflorum), wheat (winter wheat, Triticum aestivum), Galium (catchweed bedstraw, Galium aparine), corn (Zea mays), crabgrass, large (large crabgrass, Digitaria sanguinalis), foxtail, giant (giant foxtail, Setaria faberii), johnsongrass (Sorghum halepense), lambsquarters (Chenopodium album), morningglory (Ipomoea coccinea), nutsedge, yellow (yellow nutsedge, Cyperus esculentus), pigweed (Amaranthus retroflexus), ragweed (common ragweed, Ambrosia elatior), soybean (Glycine max), barnyardgrass (Echinochloa crus-galli), oilseed rape (Brassica napus), waterhemp (common waterhemp, Amaranthus rudis) and velvetleaf (Abutilon theophrasti) were planted into a blend of loam soil and sand and treated preemergence with test chemicals formulated in a non-phytotoxic solvent mixture which included a surfactant.
# (§2) At the same time, plants selected from these crop and weed species and also Kochia (Kochia scoparia), oat, wild (wild oat, Avena fatua), and chickweed (common chickweed, Stellaria media) were planted in pots containing Sunshine Redi-Earth® planting medium comprising spaghnum peat moss, vermiculite, starter nutrients and dolomitic limestone and treated with postemergence applications of test chemicals formulated in the same manner. Plants ranged in height from 2 to 18 cm (1- to 4-leaf stage) for postemergence treatments. Treated plants and controls were maintained in a greenhouse for 13 to 15 d, after which time all species were compared to controls and visually evaluated. Plant response ratings, summarized in Table C, are based on a scale of 0 to 100 where 0 is no effect and 100 is complete control. A dash (-) response means no test result.
# [2] = tested on: ryegrass, Italian (Italian ryegrass, Lolium multiflorum)
# Description: as §1, §2
# [3] = tested on: velvetleaf (Abutilon theophrasti)
# Description: as §1, §2
# [4] = tested on: nutsedge, yellow (yellow nutsedge, Cyperus esculentus)
# Description: as §1, §2
# [5] = tested on: waterhemp (common waterhemp, Amaranthus rudis)
# Description: as §1, §2
# [6] = tested on: Galium (catchweed bedstraw, Galium aparine)
# Description: as §1, §2
# [7] = tested on: oilseed rape (Brassica napus)
# Description: as §1, §2
# [8] = tested on: soybean (Glycine max)
# Description: as §1, §2
# [9] = tested on: barnyardgrass (Echinochloa crus-galli)
# Description: as §1, §2
# [10] = tested on: crabgrass, large (large crabgrass, Digitaria sanguinalis)
# Description: as §1, §2
# [11] = tested on: morningglory (Ipomoea coccinea)
# Description: as §1, §2
# [12] = tested on: foxtail, giant (giant foxtail, Setaria faberii)
# Description: as §1, §2
# [13] = tested on: pigweed (Amaranthus retroflexus)
# Description: as §1, §2
# [14] = tested on: blackgrass (Alopecurus myosuroides)
# Description: as §1, §2
# [15] = tested on: lambsquarters (Chenopodium album)
# Description: as §1, §2
# [16] = tested on: wheat (winter wheat, Triticum aestivum)
# Description: as §1, §2
# [17] = tested on: corn (Zea mays)
# Description: as §1, §2
smiles,measurement,setting,value
CN1CC(c2ccc(C(F)(F)F)c(F)c2)C(C(=O)Nc2cccc(F)c2F)C1=O (stereo not drawn) [Compound 396],"Plant response rating, Ragweed",[1]; 31 g ai/ha,65
same,"Plant response rating, Ragweed",[1]; 62 g ai/ha,80
same,"Plant response rating, Ragweed",[1]; 125 g ai/ha,85
same,"Plant response rating, Ragweed",[1]; 250 g ai/ha,85
same,"Plant response rating, Ryegrass, Italian",[2]; 62 g ai/ha,55
same,"Plant response rating, Ryegrass, Italian",[2]; 125 g ai/ha,30
same,"Plant response rating, Ryegrass, Italian",[2]; 250 g ai/ha,80
same,"Plant response rating, Velvetleaf",[3]; 62 g ai/ha,40
same,"Plant response rating, Velvetleaf",[3]; 125 g ai/ha,65
same,"Plant response rating, Velvetleaf",[3]; 250 g ai/ha,60
same,"Plant response rating, Nutsedge, Yellow",[4]; 31 g ai/ha,0
same,"Plant response rating, Nutsedge, Yellow",[4]; 62 g ai/ha,0
same,"Plant response rating, Nutsedge, Yellow",[4]; 125 g ai/ha,30
same,"Plant response rating, Nutsedge, Yellow",[4]; 250 g ai/ha,20
same,"Plant response rating, Waterhemp",[5]; 62 g ai/ha,90
same,"Plant response rating, Waterhemp",[5]; 125 g ai/ha,95
same,"Plant response rating, Waterhemp",[5]; 250 g ai/ha,95
same,"Plant response rating, Galium",[6]; 31 g ai/ha,90
same,"Plant response rating, Galium",[6]; 62 g ai/ha,90
same,"Plant response rating, Galium",[6]; 125 g ai/ha,100
same,"Plant response rating, Galium",[6]; 250 g ai/ha,100
same,"Plant response rating, Oilseed Rape",[7]; 31 g ai/ha,30
same,"Plant response rating, Oilseed Rape",[7]; 62 g ai/ha,70
same,"Plant response rating, Oilseed Rape",[7]; 125 g ai/ha,80
same,"Plant response rating, Oilseed Rape",[7]; 250 g ai/ha,85
same,"Plant response rating, Soybean",[8]; 62 g ai/ha,0
same,"Plant response rating, Soybean",[8]; 125 g ai/ha,0
same,"Plant response rating, Soybean",[8]; 250 g ai/ha,0
same,"Plant response rating, Barnyardgrass",[9]; 31 g ai/ha,85
same,"Plant response rating, Barnyardgrass",[9]; 62 g ai/ha,95
same,"Plant response rating, Barnyardgrass",[9]; 125 g ai/ha,98
same,"Plant response rating, Barnyardgrass",[9]; 250 g ai/ha,98
same,"Plant response rating, Crabgrass, Large",[10]; 31 g ai/ha,95
same,"Plant response rating, Crabgrass, Large",[10]; 62 g ai/ha,98
same,"Plant response rating, Crabgrass, Large",[10]; 125 g ai/ha,98
same,"Plant response rating, Crabgrass, Large",[10]; 250 g ai/ha,100
same,"Plant response rating, Morningglory",[11]; 31 g ai/ha,10
same,"Plant response rating, Morningglory",[11]; 62 g ai/ha,40
same,"Plant response rating, Morningglory",[11]; 125 g ai/ha,60
same,"Plant response rating, Morningglory",[11]; 250 g ai/ha,70
same,"Plant response rating, Foxtail, Giant",[12]; 31 g ai/ha,95
same,"Plant response rating, Foxtail, Giant",[12]; 62 g ai/ha,98
same,"Plant response rating, Foxtail, Giant",[12]; 125 g ai/ha,98
same,"Plant response rating, Foxtail, Giant",[12]; 250 g ai/ha,98
same,"Plant response rating, Pigweed",[13]; 31 g ai/ha,85
same,"Plant response rating, Pigweed",[13]; 62 g ai/ha,80
same,"Plant response rating, Pigweed",[13]; 125 g ai/ha,90
same,"Plant response rating, Pigweed",[13]; 250 g ai/ha,95
same,"Plant response rating, Blackgrass",[14]; 31 g ai/ha,50
same,"Plant response rating, Blackgrass",[14]; 62 g ai/ha,50
same,"Plant response rating, Blackgrass",[14]; 125 g ai/ha,80
same,"Plant response rating, Blackgrass",[14]; 250 g ai/ha,80
same,"Plant response rating, Lambsquarters",[15]; 31 g ai/ha,50
same,"Plant response rating, Lambsquarters",[15]; 62 g ai/ha,75
same,"Plant response rating, Lambsquarters",[15]; 125 g ai/ha,70
same,"Plant response rating, Lambsquarters",[15]; 250 g ai/ha,98
same,"Plant response rating, Wheat",[16]; 62 g ai/ha,10
same,"Plant response rating, Wheat",[16]; 125 g ai/ha,70
same,"Plant response rating, Wheat",[16]; 250 g ai/ha,90
same,"Plant response rating, Corn",[17]; 31 g ai/ha,0
same,"Plant response rating, Corn",[17]; 62 g ai/ha,50
same,"Plant response rating, Corn",[17]; 125 g ai/ha,65
same,"Plant response rating, Corn",[17]; 250 g ai/ha,75
CN1CC(c2ccc(C(F)(F)F)c(F)c2)C(C(=O)Nc2ccccc2F)C1=O (stereo not drawn) [Compound 399],"Plant response rating, Ragweed",[1]; 31 g ai/ha,50
same,"Plant response rating, Ragweed",[1]; 62 g ai/ha,50
same,"Plant response rating, Ragweed",[1]; 125 g ai/ha,65
same,"Plant response rating, Ragweed",[1]; 250 g ai/ha,80
same,"Plant response rating, Ryegrass, Italian",[2]; 62 g ai/ha,50
same,"Plant response rating, Ryegrass, Italian",[2]; 125 g ai/ha,75
same,"Plant response rating, Ryegrass, Italian",[2]; 250 g ai/ha,50
same,"Plant response rating, Velvetleaf",[3]; 62 g ai/ha,20
same,"Plant response rating, Velvetleaf",[3]; 125 g ai/ha,50
same,"Plant response rating, Velvetleaf",[3]; 250 g ai/ha,60
same,"Plant response rating, Nutsedge, Yellow",[4]; 31 g ai/ha,0
same,"Plant response rating, Nutsedge, Yellow",[4]; 62 g ai/ha,0
same,"Plant response rating, Nutsedge, Yellow",[4]; 125 g ai/ha,0
same,"Plant response rating, Nutsedge, Yellow",[4]; 250 g ai/ha,0
same,"Plant response rating, Waterhemp",[5]; 62 g ai/ha,80
same,"Plant response rating, Waterhemp",[5]; 125 g ai/ha,90
same,"Plant response rating, Waterhemp",[5]; 250 g ai/ha,98
same,"Plant response rating, Galium",[6]; 31 g ai/ha,80
same,"Plant response rating, Galium",[6]; 62 g ai/ha,85
same,"Plant response rating, Galium",[6]; 125 g ai/ha,90
same,"Plant response rating, Galium",[6]; 250 g ai/ha,90
same,"Plant response rating, Oilseed Rape",[7]; 31 g ai/ha,35
same,"Plant response rating, Oilseed Rape",[7]; 62 g ai/ha,30
same,"Plant response rating, Oilseed Rape",[7]; 125 g ai/ha,70
same,"Plant response rating, Oilseed Rape",[7]; 250 g ai/ha,85
same,"Plant response rating, Soybean",[8]; 62 g ai/ha,0
same,"Plant response rating, Soybean",[8]; 125 g ai/ha,0
same,"Plant response rating, Soybean",[8]; 250 g ai/ha,0
same,"Plant response rating, Barnyardgrass",[9]; 31 g ai/ha,95
same,"Plant response rating, Barnyardgrass",[9]; 62 g ai/ha,98
same,"Plant response rating, Barnyardgrass",[9]; 125 g ai/ha,100
same,"Plant response rating, Barnyardgrass",[9]; 250 g ai/ha,98
same,"Plant response rating, Crabgrass, Large",[10]; 31 g ai/ha,98
same,"Plant response rating, Crabgrass, Large",[10]; 62 g ai/ha,98
same,"Plant response rating, Crabgrass, Large",[10]; 125 g ai/ha,100
same,"Plant response rating, Crabgrass, Large",[10]; 250 g ai/ha,100
same,"Plant response rating, Morningglory",[11]; 31 g ai/ha,40
same,"Plant response rating, Morningglory",[11]; 62 g ai/ha,40
same,"Plant response rating, Morningglory",[11]; 125 g ai/ha,30
same,"Plant response rating, Morningglory",[11]; 250 g ai/ha,55
same,"Plant response rating, Foxtail, Giant",[12]; 31 g ai/ha,95
same,"Plant response rating, Foxtail, Giant",[12]; 62 g ai/ha,95
same,"Plant response rating, Foxtail, Giant",[12]; 125 g ai/ha,98
same,"Plant response rating, Foxtail, Giant",[12]; 250 g ai/ha,98
same,"Plant response rating, Pigweed",[13]; 31 g ai/ha,70
same,"Plant response rating, Pigweed",[13]; 62 g ai/ha,75
same,"Plant response rating, Pigweed",[13]; 125 g ai/ha,90
same,"Plant response rating, Pigweed",[13]; 250 g ai/ha,95
same,"Plant response rating, Blackgrass",[14]; 31 g ai/ha,50
same,"Plant response rating, Blackgrass",[14]; 62 g ai/ha,80
same,"Plant response rating, Blackgrass",[14]; 125 g ai/ha,70
same,"Plant response rating, Blackgrass",[14]; 250 g ai/ha,90
same,"Plant response rating, Lambsquarters",[15]; 31 g ai/ha,90
same,"Plant response rating, Lambsquarters",[15]; 62 g ai/ha,85
same,"Plant response rating, Lambsquarters",[15]; 125 g ai/ha,85
same,"Plant response rating, Lambsquarters",[15]; 250 g ai/ha,98
same,"Plant response rating, Wheat",[16]; 62 g ai/ha,15
same,"Plant response rating, Wheat",[16]; 125 g ai/ha,80
same,"Plant response rating, Wheat",[16]; 250 g ai/ha,75
same,"Plant response rating, Corn",[17]; 31 g ai/ha,35
same,"Plant response rating, Corn",[17]; 62 g ai/ha,40
same,"Plant response rating, Corn",[17]; 125 g ai/ha,65
same,"Plant response rating, Corn",[17]; 250 g ai/ha,60
